Measured values reported in patent publication US20120258926A1, “FORMULATIONS OF ACADESINE” (priority 2009, published 2012).
In brackets after ≈: the same amount, converted by molar mass. Like-named read-outs stand apart in the source and are kept apart here.

Assay: Solubility data of acadesine in injectable solution
Type: physicochemical

Q: Which solubility (5° C., injectable solution pH 6.0-8.0 (with antioxidant), read-out: solubility data supports) does the source give for NC(=O)c1ncn([C@@H]2O[C@H](CO)[C@@H](O)[C@H]2O)c1N [Acadesine, 5-aminoimidazole-4-carboxamide (AICA) riboside] here?
A: 18 mg/mL (≈ 69.7 mM)

Q: And the solubility (5° C., injectable solution pH 7.2-8.0, read-out: solubility data supports)?
A: 18 mg/mL (≈ 69.7 mM)

Q: And the solubility (5° C., injectable solution pH range 8.8-9.6, read-out: Available solubility data supports up to)?
A: ≤ 21.5 mg/mL

Q: And the solubility (5 °C, injectable solution pH 8.8-9.6, read-out: solubility data supports)?
A: 18 mg/mL (≈ 69.7 mM)

Q: And the solubility (Room temperature, injectable solution pH 6.0-8.0 (with antioxidant), read-out: solubility data supports)?
A: 60 mg/mL (≈ 232 mM)

Q: What about the solubility (Room temperature, injectable solution pH 7.2-8.0, read-out: solubility data supports) of the same molecule?
A: 60 mg/mL (≈ 232 mM)

Q: And the solubility (Room temperature, injectable solution pH 8.8-9.6, read-out: solubility data supports)?
A: 60 mg/mL (≈ 232 mM)
